Measured values as given in patent publication US6472348B1, “Pyridone derivatives and herbicides” (Kumiai Chemical Industry Co., Ltd., priority 1996, dated 2002).

What was measured:
Format in all cases: in vivo
barnyardgrass (Ec) [1] = assay: Test Example 1: herbicidal effects by paddy field soil treatment; conditions: 100 g of the active ingredient per 10 ares, 21st day after the application, index 0-5 of Table 47;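 further: grade of growth control; 5 = at least 90%; 4 = 70 to 90%; 3 = 50 to 70%; 2 = 30 to 50%; 1 = 10 to 30%; 0 = under 10%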
How it was run: (§1)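 Flooded paddy-soil pots (3 cm water) sown after puddling/leveling; treatment 100 g a.i./10 ares; greenhouse culture; herbicidal effect rated visually on a scoring scale at 21 d post-application.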

bulrush (Sc) = assay: as above; conditions: 100 g of the active ingredient per 10 ares, 21st day after the application, index 0-5 of Table 47;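 further: grade of growth control; 5 = at least 90%; 4 = 70 to 90%; 3 = 50 to 70%; 2 = 30 to 50%; 1 = 10 to 30%; 0 = under 10%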
How it was run: as §1

monochoria (Mo) = assay: as above; conditions: 100 g of the active ingredient per 10 ares, 21st day after the application, index 0-5 of Table 47;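 further: grade of growth control; 5 = at least 90%; 4 = 70 to 90%; 3 = 50 to 70%; 2 = 30 to 50%; 1 = 10 to 30%; 0 = under 10%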
How it was run: as §1

Digitaria ciliaris (Di) = assay: Test Example 2: herbicidal effects by upland field soil treatment; conditions: 100 g of the active ingredient per 10 ares;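 further: grade of growth control; 5 = at least 90%; 4 = 70 to 90%; 3 = 50 to 70%; 2 = 30 to 50%; 1 = 10 to 30%; 0 = under 10%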
Description: (§2) (Test on Herbicidal Effects by Upland Field Soil Treatment)

barnyardgrass (Ec) [2] = assay: as above; conditions: 100 g of the active ingredient per 10 ares
Description: as §2

[3] = system: common lambsquarters (Ch); assay: as above; conditions: 100 g of the active ingredient per 10 ares
Description: as §2

pale smartweed (Po) [4] = assay: as above; conditions: 100 g of the active ingredient per 10 ares
Description: as §2

rice flatsedge (Ci) [5] = assay: as above; conditions: 100 g of the active ingredient per 10 ares
Description: as §2

slender amaranth (Am) [6] = assay: as above; conditions: 100 g of the active ingredient per 10 ares
Description: as §2

Diaitaria ciliaris (Di) = assay: Test Example 3: herbicidal effects by upland field foliage treatment; design: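 grade of growth control; 5 = at least 90%; 4 = 70 to 90%; 3 = 50 to 70%; 2 = 30 to 50%; 1 = 10 to 30%; 0 = under 10%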
How it was run: (§3)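 Seeds → sand pot (120 cm^2) → soil cover → greenhouse 2 wk → foliar treatment → greenhouse → herbicidal score at 14 d post-treatment against graded standards.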

barnyardgrass (Ec) [7] = assay: as above; design: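 grade of growth control; 5 = at least 90%; 4 = 70 to 90%; 3 = 50 to 70%; 2 = 30 to 50%; 1 = 10 to 30%; 0 = under 10%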
How it was run: as §3

[8] = system: common lambsquarters (Ch); assay: as above; design: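 grade of growth control; 5 = at least 90%; 4 = 70 to 90%; 3 = 50 to 70%; 2 = 30 to 50%; 1 = 10 to 30%; 0 = under 10%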
How it was run: as §3

pale smartweed (Po) [9] = assay: as above; design: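 grade of growth control; 5 = at least 90%; 4 = 70 to 90%; 3 = 50 to 70%; 2 = 30 to 50%; 1 = 10 to 30%; 0 = under 10%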
How it was run: as §3

rice flatsedge (Ci) [10] = assay: as above; design: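 grade of growth control; 5 = at least 90%; 4 = 70 to 90%; 3 = 50 to 70%; 2 = 30 to 50%; 1 = 10 to 30%; 0 = under 10%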
How it was run: as §3

slender amaranth (Am) [11] = assay: as above; design: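 grade of growth control; 5 = at least 90%; 4 = 70 to 90%; 3 = 50 to 70%; 2 = 30 to 50%; 1 = 10 to 30%; 0 = under 10%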
How it was run: as §3

[12] = evaluated on the 21st day after application
[13] = 100 g active ingredient per 10 ares, evaluated 14th day after treatment
[14] = 21st day after the application, index 0-5 of Table 47
[15] = 100 g of the active ingredient per 10 ares, evaluated on the 14th day after treatment

Row | Compound | Herbicidal effects Ec (barnyardgrass (Ec) [1]) | Herbicidal effects Sc (bulrush (Sc)) | Herbicidal effects Mo (monochoria (Mo)) | Herbicidal effects Di (Digitaria ciliaris (Di); [12]) | Herbicidal effects Ec (barnyardgrass (Ec) [2]; [12]) | Herbicidal effects Ch [3, 12] | Herbicidal effects Po (pale smartweed (Po) [4]; [12]) | Herbicidal effects Ci (rice flatsedge (Ci) [5]; [12]) | Herbicidal effects Am (slender amaranth (Am) [6]; [12]) | Herbicidal effects Di (Diaitaria ciliaris (Di); [13]) | Herbicidal effects Ec (barnyardgrass (Ec) [7]; [13]) | Herbicidal effects Ch [8, 13] | Herbicidal effects Po (pale smartweed (Po) [9]; [13]) | Herbicidal effects Ci (rice flatsedge (Ci) [10]; [13]) | Herbicidal effects Am (slender amaranth (Am) [11]; [13]) | Herbicidal effects Di (Digitaria ciliaris (Di); [14]) | Herbicidal effects Ec (barnyardgrass (Ec) [2]; [14]) | Herbicidal effects Ch [3, 14] | Herbicidal effects Po (pale smartweed (Po) [4]; [14]) | Herbicidal effects Ci (rice flatsedge (Ci) [5]; [14]) | also measured
1 | Cc1cc2c(-c3ccc(C(F)(F)F)n(C)c3=O)ccc(Cl)c2o1 [Compound 4-24] | 5 | 5 | 5 | 5 | 4 | 5 | 5 | 5 | 5 | 5 | 4 | 5 | 5 | 5 | 5 |  |  |  |  |  | 
2 | Cn1c(C(F)(F)F)ccc(-c2c(Cl)cc(Cl)c3oc(C(Br)Br)cc23)c1=O [Compound 4-29] | 5 | 5 | 5 | 5 | 5 | 5 | 5 | 5 | 5 | 5 | 5 | 5 | 5 | 5 | 5 |  |  |  |  |  | 
3 | CCOCc1cc2c(-c3ccc(C(F)(F)F)n(C)c3=O)c(F)cc(Cl)c2o1 [Compound 4-31] | 5 | 5 | 5 | 5 | 5 | 5 | 5 | 5 | 5 | 5 | 5 | 5 | 5 | 5 | 5 |  |  |  |  |  | 
4 | C=CCOc1cc(-c2cn(C)c(C(F)(F)F)cc2=O)c(F)cc1Cl [Compound 6-8] | 5 | 5 | 5 | 5 | 5 | 5 | 5 | 5 | 5 | 5 | 5 | 5 | 5 | 5 | 5 |  |  |  |  |  | 
5 | Cc1cc(-c2ccc(Cl)cc2Cl)c(=O)n(C)c1C(F)(F)F [Compound No. 1-11] | 5 | 5 | 5 |  |  |  |  |  |  |  |  |  |  |  |  | 5 | 5 | 5 | 5 | 5 | Herbicidal effects Am (slender amaranth (Am) [6]; [14]): 5; Herbicidal effects Di (Diaitaria ciliaris (Di); [15]): 5; Herbicidal effects Ec (barnyardgrass (Ec) [7]; [15]): 5; Herbicidal effects Ch [8, 15]: 5; Herbicidal effects Po (pale smartweed (Po) [9]; [15]): 5; Herbicidal effects Ci (rice flatsedge (Ci) [10]; [15]): 5; Herbicidal effects Am (slender amaranth (Am) [11]; [15]): 5
6 | Cn1c(C(F)(F)F)ccc(-c2cc(C=O)c(Cl)cc2F)c1=O [Compound No. 1-81, 5-[1--methyl-6-trifluoromethyl-2(1H)-pyridon-3-yl]-2-chloro-4-fluorobenzaldehyde] | 5 | 5 | 5 |  |  |  |  |  |  |  |  |  |  |  |  | 5 | 5 | 5 | 5 | 5 | Herbicidal effects Am (slender amaranth (Am) [6]; [14]): 5; Herbicidal effects Di (Diaitaria ciliaris (Di); [15]): 5; Herbicidal effects Ec (barnyardgrass (Ec) [7]; [15]): 5; Herbicidal effects Ch [8, 15]: 5; Herbicidal effects Po (pale smartweed (Po) [9]; [15]): 5; Herbicidal effects Ci (rice flatsedge (Ci) [10]; [15]): 5; Herbicidal effects Am (slender amaranth (Am) [11]; [15]): 5
7 | Cn1c(C(F)(F)F)ccc(-c2cc(C(=O)O)c(Cl)cc2F)c1=O [Compound No. 1-141, 5-(1-methyl-6-trifluoromethyl-2(1H)-pyridon-3-yl)-2-chloro-4-fluorobenzoic acid] | 5 | 5 | 5 |  |  |  |  |  |  |  |  |  |  |  |  | 5 | 4 | 5 | 5 | 5 | Herbicidal effects Am (slender amaranth (Am) [6]; [14]): 5; Herbicidal effects Di (Diaitaria ciliaris (Di); [15]): 5; Herbicidal effects Ec (barnyardgrass (Ec) [7]; [15]): 5; Herbicidal effects Ch [8, 15]: 5; Herbicidal effects Po (pale smartweed (Po) [9]; [15]): 5; Herbicidal effects Ci (rice flatsedge (Ci) [10]; [15]): 5; Herbicidal effects Am (slender amaranth (Am) [11]; [15]): 5
